Measured values reported in patent US7834164B2 (priority 2006, dated 2010).
Bridge positions count the residues as written; N and C are the ends. Square brackets hold non-standard residues; d marks the D form. Peptide text beside a SMILES is read from it. 1Nal = N[C@@H](Cc1cccc2ccccc12)C(=O)O

Key:
[1] = system: IFNγ production from human PBMCs; type: cell-based
[2] = system: IFNγ production from human PBMCs; type: cell-based; remark: listed apart in the source
[3] = system: AT-EAE model of multiple sclerosis; design: species or system Lewis rats; conditions: rat, in vivo, sc
[4] = system: IL-2 production in human whole blood; type: cell-based
[5] = system: IFN-g production in human whole blood; type: cell-based
[6] = system: CD40L on T cells in human whole blood; type: cell-based
[7] = system: IL-2R on T cells in human whole blood; type: cell-based
[8] = rat, in vivo, iv, 1 mg/kg
human Kv1.1 = target: T1, human Kv1.1 (Homo sapiens, UniProt Q09470); type: cell-based; conditions: read-out: Kv1.1 Analogue Activity (IC50)
T1 construct: expressed in transfected cells; host or cells: HEK293
T1 sequence (Q09470 whole entry): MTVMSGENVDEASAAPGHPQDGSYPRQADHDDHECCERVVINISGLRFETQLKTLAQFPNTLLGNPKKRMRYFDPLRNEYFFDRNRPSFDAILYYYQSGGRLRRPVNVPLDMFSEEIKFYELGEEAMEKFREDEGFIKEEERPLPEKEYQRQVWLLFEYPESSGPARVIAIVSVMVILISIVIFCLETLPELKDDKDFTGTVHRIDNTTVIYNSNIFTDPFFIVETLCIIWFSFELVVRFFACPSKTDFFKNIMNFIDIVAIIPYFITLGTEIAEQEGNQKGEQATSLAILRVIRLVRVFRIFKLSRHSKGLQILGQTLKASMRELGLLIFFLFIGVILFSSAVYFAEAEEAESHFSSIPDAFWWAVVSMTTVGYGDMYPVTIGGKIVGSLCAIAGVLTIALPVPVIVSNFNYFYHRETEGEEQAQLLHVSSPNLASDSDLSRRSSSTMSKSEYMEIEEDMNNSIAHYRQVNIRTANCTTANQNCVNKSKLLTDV

CC[C@H](C)[C@@H]1NC(=O)[C@@H](NC(=O)[C@H](CO)NC(=O)[C@@H](N)CCCNC(=N)N)CSSC[C@@H](C(=O)O)NC(=O)[C@H]([C@@H](C)O)NC(=O)CNC(=O)[C@@H]2CSSC[C@@H]3NC(=O)[C@H](CCC(N)=O)NC(=O)[C@H](Cc4ccccc4)NC(=O)[C@H](C)NC(=O)[C@H]([C@@H](C)O)NC(=O)[C@H](CSSC[C@H](NC(=O)[C@H](Cc4ccccc4)NC(=O)[C@H](CO)NC(=O)[C@H](CC(C)C)NC(=O)[C@H](CCCNC(=N)N)NC(=O)[C@H](Cc4ccc(O)cc4)NC(=O)[C@H](CCCCN)NC(=O)[C@H](CCSC)NC(=O)[C@H](CO)NC(=O)[C@H](Cc4cnc[nH]4)NC(=O)[C@H](CCCCN)NC3=O)C(=O)N[C@@H](CCCNC(=N)N)C(=O)N[C@@H](CCCCN)C(=O)N[C@@H]([C@@H](C)O)C(=O)N2)NC(=O)[C@H](CCCNC(=N)N)NC(=O)[C@H](CO)NC(=O)[C@H](CCCCN)NC(=O)[C@@H]2CCCN2C(=O)[C@H]([C@@H](C)CC)NC(=O)[C@H]([C@@H](C)O)NC(=O)[C@H](CC(=O)O)NC1=O [ShK]
extent of inhibition of IFNγ production [1]: partial inhibition
extent of inhibition of IFNg production [2]: only partial inhibition
average body weight lost [3]: 30 g
disease severity and survival (in words) [3]: developed severe disease and died
onset of disease [3]: 4 days
thapsigargin-induced IL-2 production in human whole blood (in words) [4]: suppressed
thapsigargin-induced IFN-g production in human whole blood (in words) [5]: suppressed
thapsigargin-induced upregulation of CD40L on T cells in human whole blood (in words) [6]: suppressed
thapsigargin-induced upregulation of the IL-2R on T cells in human whole blood (in words) [7]: suppressed
time of significant suppression of Kv1.3 current (<70 POC) by 5% serum Test solutions [8]: ≤ 1 h

CC[C@H](C)[C@@H]1NC(=O)[C@H](Cc2cccc3ccccc23)NC(=O)[C@@H](NC(=O)[C@H](CCCCN)NC(=O)[C@@H](NC(=O)[C@H](CC(N)=O)NC(=O)[C@@H](NC(=O)[C@@H](NC(=O)[C@@H](NC(=O)CN)C(C)C)[C@@H](C)CC)[C@@H](C)CC)C(C)C)CSSC[C@@H]2NC(=O)[C@H](CCCCN)NC(=O)CNC(=O)[C@H](Cc3ccccc3)NC(=O)[C@H](CCCNC(=N)N)NC(=O)[C@H](CCSC)NC(=O)CNC(=O)[C@H](C)NC(=O)[C@H](CCCCN)NC(=O)[C@H](CCCCN)NC(=O)[C@@H]3CSSC[C@@H](C(=O)N[C@H](C(=O)N4CCC[C@H]4C(=O)N[C@@H](CCCCN)C(=O)O)[C@@H](C)O)NC(=O)[C@H](Cc4c[nH]cn4)NC(=O)[C@H](CSSC[C@H](NC(=O)[C@H](CCC(N)=O)NC(=O)[C@H](CCCNC(=N)N)NC(=O)[C@H](CO)NC1=O)C(=O)N[C@@H](CC(C)C)C(=O)N[C@@H](CCC(=O)O)C(=O)N1CCC[C@H]1C(=O)N3)NC(=O)[C@H](CCCCN)NC(=O)CNC(=O)[C@H](CC(N)=O)NC(=O)[C@H](CCSC)NC2=O [K9Nal] (H-GVIINVKC[1Nal]ISRQCLEPCKKAGMRFGKCMNGKCHCTPK-OH; disulfide 8-28, 14-33, 18-35)
IC50 (human Kv1.1): 0.292 nM
